Experimental data reported in patent US9192656B2, “Methods and compositions for the treatment of cancer” (QUINTESSENCE BIOSCIENCES, INC., priority 2006, dated 2015).

Columns and labels:
[1] = test system: human pancreatic cancer cell line (B×PC-3); test: In vivo inhibition of tumor growth, BxPC-3 xenograft; parameters: species or system human tumor cells in nude mice; details: for Starting volume: at start
Experimental: (§1) Cells from a non-small cell lung cancer cell line (A549) were grown in nine T175 flasks in F12K media and 10% fetal calf serum until the cells were confluent. 4.5×10^6 cells (in 100 microliters) were injected into the right rear flank of 4-5 week old male homozygous (nu/nu) nude mice (Harlan, Madison Wis.). Tumors were allowed to grow to an average size of ≧75 mm^3 before treatments were initiated. Animals of each tumor type, with the properly sized tumors, were divided into treatment groups, including one set of animals treated weekly with vehicle (phosphate buffered saline, PBS). The vehicle and the test agents were all administered by intraperitoneal injection. Each animal was weighed twice a week during treatment. The tumors were measured twice weekly using calipers. Tumor volume (mm^3) was determined by using the formula for an ellipsoid sphere: […]
(§2) The percent tumor growth inhibition (% TGI) is calculated by: […]
(§3) The xenograft model of this example was set up as in the previous example except that a human pancreatic cancer cell line (B×PC-3) was used. The efficacy of wild type human RNase 1 is shown relative to gemcite. The RNase 1 was administered at 15 mg per kg of body weight of the animal five times per week (15 mg/kg qd×5), while the gemcite was used at 60 mg/kg twice a week. The value of n represents the number of animals in the specific treatment arm of the experiment.
as §3, with “shown.” for “shown relative to gemcite.”, “three different doses: (1) 30” for “15”, “once” for “five times”, “(30” for “(15”, “1×wk), (2) 75” for “qd×5), while the gemcite was used at 60”, “1×wk, or (3) 150 mg/kg 1×wk.” for “twice a week.”

[2] = test system: human breast cancer cell line (MDA-MB-231); test: In vivo inhibition of tumor growth, MDA-MB-231 xenograft; parameters: species or system human tumor cells in nude mice; details: Example 10, Table 14, female mice, RNase 1 75 mg/kg 1×wk, doxorubicin 3 mg/kg once per week
Experimental: as §1, §2
The xenograft model of this example was set up as in the previous example except that a human breast cancer cell line (MDA-MB-231) and female mice were used. The efficacy of wild type human RNase 1 is shown relative to doxorubicin. The RNase 1 was administered at 75 mg per kg of body weight of the animal once per week (75 mg/kg 1×wk), while the doxorubicin was given at 3 mg/kg once per week. The value of n represents the number of animals in the specific treatment arm of the experiment.

[3] = Clinical chemistry and complete blood count plus platelets (DU145 xenograft mice); assay type: in vivo
Experimental: Clinical chemistry and a complete blood count (CBC) plus platelets were performed on whole blood and serum samples collected from the mice 24 hours after the last treatment of the prostate xenograft model above. […] Creatinine was also tested and found not to differ. The levels of the liver enzymes, gamma glutamyl transferase (GGT) and alanine transaminase (ALT) in all treatment groups were similar (GGT data not shown.). The values were determined for the various treatment groups of the prostate (DU145) xenograft study for clinical chemistry (A., B.), complete blood count (C., D.), and platelets (F.). Abbreviations: TCO2, amount of bicarbonate ion (HCO3^−); Anion Gap, [Na+K]—[Cl+HCO3]; ALT, alanine aminotransferase; WBC, white blood count; RBC, red blood count; HGB, hemoglobin; RBC HGB, (CHCM×RBC×MCV)/1000); MCH, mean corpuscular hemoglobin; MCHC, mean corpuscular hemoglobin concentration; RDW, red cell distribution width; MPV, mean platelet volume; HCT, hematocrit; MCV, mean corpuscular volume.

[4] = test system: non-small cell lung cancer cell line (A549); test: In vivo inhibition of tumor growth, A549 xenograft; parameters: species or system human tumor cells in nude mice; details: for Starting volume: at start
Experimental: Cells from a non-small cell lung cancer cell line (A549) were grown in nine T175 flasks in F12K media and 10% fetal calf serum until the cells were confluent. 4.5×10^6 cells (in 100 microliters) were injected into the right rear flank of 4-5 week old male homozygous (nu/nu) nude mice (Harlan, Madison Wis.). Tumors were allowed to grow to an average size of ≧75 mm^3 before treatments were initiated. Animals of each tumor type, with the properly sized tumors, were divided into treatment groups, including one set of animals treated weekly with vehicle (phosphate buffered saline, PBS). The vehicle and the test agents were all administered by intraperitoneal injection. Each animal was weighed twice a week during treatment. The tumors were measured twice weekly using calipers. Tumor volume (mm^3) was determined by using the formula for an ellipsoid sphere:
[formula] The efficacy of wild type human RNase 1 is shown relative to cisplatin. The RNase 1 was administered at 75 mg per kg of body weight of the animal once a week (75 mg/kg 1×wk), while the cisplatin was used at 6 mg/kg once a week. The value of n represents the number of animals in the specific treatment arm of the experiment.
as §2
The xenograft model of this example was set up with the human non-small cell lung cancer cell line (A549) as in the previous examples. The efficacy of wild type human RNase 1 is shown relative to tarceva. The RNase 1 was administered at 75 mg per kg of body weight of the animal (75 mg/kg 1×wk) or 150 mg/kg 1×wk. Tarceva was given orally with doses of 50 mg/kg twice a week. The value of n represents the number of animals in the specific treatment arm of the experiment.

[5] = Example 5, Table 9, RNase 1 15 mg/kg qd×5, gemcite 60 mg/kg twice a week
[6] = Example 7, Table 11, 30 mg/kg 1×wk
[7] = Example 7, Table 11, 75 mg/kg 1×wk
[8] = Example 7, Table 11, 150 mg/kg 1×wk
[9] = Example 3, Table 7, i.p., RNase 1 75 mg/kg 1×wk, cisplatin 6 mg/kg once a week
[10] = Example 6, Table 10, 75 mg/kg 1×wk
[11] = Example 6, Table 10, 150 mg/kg 1×wk

Substance: Wild type human RNase 1: wild type human ribonuclease 1 (human pancreatic RNase), SEQ ID NO:1
- % TGI [1, 5]: 24%
- (Final − start) [1, 5]: 822 mm^3
- (Final − start)/Control [1, 5]: 0.76
- Final volume [1, 5]: 899 mm^3
- Starting volume [1, 5]: 77 mm^3
- % TGI [1, 6]: 3%
- (Final − start) [1, 6]: 554 mm^3
- (Final − start)/Control [1, 6]: 0.97
- Final volume [1, 6]: 632 mm^3
- Starting volume [1, 6]: 78 mm^3
- % TGI [1, 7]: 43%
- (Final − start) [1, 7]: 323 mm^3
- (Final − start)/Control [1, 7]: 0.57
- Final volume [1, 7]: 392 mm^3
- Starting volume [1, 7]: 69 mm^3
- % TGI [1, 8]: 29%
- (Final − start) [1, 8]: 402 mm^3
- (Final − start)/Control [1, 8]: 0.71
- Final volume [1, 8]: 471 mm^3
- Starting volume [1, 8]: 69 mm^3
- % TGI [2]: 64%
- (Final − start) [2]: 50 mm^3
- (Final − start)/Control [2]: 0.36
- Final volume [2]: 121 mm^3
- Starting volume ([2]; at start): 71 mm^3
- Creatinine versus vehicle ([3]; 24 hours after the last treatment): not to differ
- Clinical chemistry and complete blood count plus platelets, all tests, versus vehicle ([3]; whole blood and serum 24 hours after the last treatment, Mann-Whitney U test): not to be significantly different
- % TGI [4, 9]: 51%
- (Final − start) [4, 9]: 149 mm^3
- (Final − start)/Control [4, 9]: 0.49
- Final volume [4, 9]: 217 mm^3
- Starting volume [4, 9]: 68 mm^3
- % TGI [4, 10]: 63%
- (Final − start) [4, 10]: 300 mm^3
- (Final − start)/Control [4, 10]: 0.37
- Final volume [4, 10]: 378 mm^3
- Starting volume [4, 10]: 78 mm^3
- % TGI [4, 11]: 66%
- (Final − start) [4, 11]: 276 mm^3
- (Final − start)/Control [4, 11]: 0.34
- Final volume [4, 11]: 355 mm^3
- Starting volume [4, 11]: 79 mm^3
